Laboratory results taken from PubChem BioAssay AID2060907 (Molecular Pharmacology Branch, DTP, NCI, 2025).
Each block holds one compound with its values, some of them ahead of it.

Tested on: 388556-164-R-J1-PDC complex spheroid viability
Experiment: Anticancer human tumor 388556-164-R-J1-PDC patient-derived colon adenocarcinoma cell line growth inhibition [RAS]
Details: for IC50: curve of first compound; for viability, T/C: stronger effect = lower value
Procedure, shortened: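 Tumour cells grown as complex spheroids with HUVEC endothelial cells and mesenchymal stem cells, treated with RAS pathway inhibitor combinations. Each agent spans half-log steps from near clinical Cmax, or 10 microM where Cmax is unknown.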
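Further: spheroids exposed to compound for 7 days before readout.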
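Wherever viability, T/C is given: 100% = DMSO vehicle control luminescence.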

IC50 (second compound 0.0316 µM): > 1000 nM
IC50 (second compound 0.1 µM): > 1000 nM
IC50 (second compound 0.316 µM): > 1000 nM
IC50 (second compound 1 µM): > 1000 nM
IC50 (second compound 3.16 µM): > 1000 nM
IC50 (second compound 10 µM): > 1000 nM
SMILES: C=CC(=O)N1CCN(c2nc(OCC3CCCN3C)nc3c(F)c(-c4nc(N)cc(C)c4C(F)(F)F)c(Cl)cc23)C(C)C1 (centres undefined) + C#Cc1c(F)ccc2cc(O)cc(-c3ncc4c(N5CC6CCC(C5)N6)nc(OCC56CCCN5CC(F)C6)nc4c3F)c12
viability, T/C (second compound 0.0316 µM, first compound 0.00316 µM): 102%
viability, T/C (second compound 0.0316 µM, first compound 0.01 µM): 117%
viability, T/C (second compound 0.0316 µM, first compound 0.0316 µM): 110%
viability, T/C (second compound 0.0316 µM, first compound 0.1 µM): 107%
viability, T/C (second compound 0.0316 µM, first compound 0.316 µM): 110%
viability, T/C (second compound 0.0316 µM, first compound 1 µM): 111%
viability, T/C (second compound 0.1 µM, first compound 0.00316 µM): 108%
viability, T/C (second compound 0.1 µM, first compound 0.01 µM): 109%
viability, T/C (second compound 0.1 µM, first compound 0.0316 µM): 105%
viability, T/C (second compound 0.1 µM, first compound 0.1 µM): 109%
viability, T/C (second compound 0.1 µM, first compound 0.316 µM): 112%
viability, T/C (second compound 0.1 µM, first compound 1 µM): 102%
viability, T/C (second compound 0.316 µM, first compound 0.00316 µM): 99.4%
viability, T/C (second compound 0.316 µM, first compound 0.01 µM): 94.5%
viability, T/C (second compound 0.316 µM, first compound 0.0316 µM): 97.4%
viability, T/C (second compound 0.316 µM, first compound 0.1 µM): 102%
viability, T/C (second compound 0.316 µM, first compound 0.316 µM): 111%
viability, T/C (second compound 0.316 µM, first compound 1 µM): 96.2%
viability, T/C (second compound 1 µM, first compound 0.00316 µM): 95.3%
viability, T/C (second compound 1 µM, first compound 0.01 µM): 93.1%
viability, T/C (second compound 1 µM, first compound 0.0316 µM): 75.5%
viability, T/C (second compound 1 µM, first compound 0.1 µM): 89.2%
viability, T/C (second compound 1 µM, first compound 0.316 µM): 107%
viability, T/C (second compound 1 µM, first compound 1 µM): 86.5%
viability, T/C (second compound 3.16 µM, first compound 0.00316 µM): 84.4%
viability, T/C (second compound 3.16 µM, first compound 0.01 µM): 80.9%
viability, T/C (second compound 3.16 µM, first compound 0.0316 µM): 85.3%
viability, T/C (second compound 3.16 µM, first compound 0.1 µM): 92.1%
viability, T/C (second compound 3.16 µM, first compound 0.316 µM): 99.6%
viability, T/C (second compound 3.16 µM, first compound 1 µM): 80%
viability, T/C (second compound 10 µM, first compound 0.00316 µM): 72.3%
viability, T/C (second compound 10 µM, first compound 0.01 µM): 58.4%
viability, T/C (second compound 10 µM, first compound 0.0316 µM): 68.7%
viability, T/C (second compound 10 µM, first compound 0.1 µM): 68.8%
viability, T/C (second compound 10 µM, first compound 0.316 µM): 76.2%
viability, T/C (second compound 10 µM, first compound 1 µM): 55.8%

IC50 (second compound 0.0316 µM): > 300 nM
IC50 (second compound 0.1 µM): > 300 nM
IC50 (second compound 0.316 µM): > 300 nM
IC50 (second compound 1 µM): > 300 nM
IC50 (second compound 3.16 µM): > 300 nM
IC50 (second compound 10 µM): > 300 nM
SMILES: CC1(C)CCC(Nc2ncc(C(F)(F)F)c(-c3c[nH]c4c(P(C)(C)=O)c(C#N)ccc34)n2)CN1 (centres undefined) + C#Cc1c(F)ccc2cc(O)cc(-c3ncc4c(N5CC6CCC(C5)N6)nc(OCC56CCCN5CC(F)C6)nc4c3F)c12
viability, T/C (second compound 0.0316 µM, first compound 0.000949 µM): 111%
viability, T/C (second compound 0.0316 µM, first compound 0.003 µM): 110%
viability, T/C (second compound 0.0316 µM, first compound 0.00949 µM): 112%
viability, T/C (second compound 0.0316 µM, first compound 0.03 µM): 94.9%
viability, T/C (second compound 0.0316 µM, first compound 0.0949 µM): 118%
viability, T/C (second compound 0.0316 µM, first compound 0.3 µM): 97.3%
viability, T/C (second compound 0.1 µM, first compound 0.000949 µM): 110%
viability, T/C (second compound 0.1 µM, first compound 0.003 µM): 112%
viability, T/C (second compound 0.1 µM, first compound 0.00949 µM): 110%
viability, T/C (second compound 0.1 µM, first compound 0.03 µM): 101%
viability, T/C (second compound 0.1 µM, first compound 0.0949 µM): 116%
viability, T/C (second compound 0.1 µM, first compound 0.3 µM): 92.1%
viability, T/C (second compound 0.316 µM, first compound 0.000949 µM): 100%
viability, T/C (second compound 0.316 µM, first compound 0.003 µM): 100%
viability, T/C (second compound 0.316 µM, first compound 0.00949 µM): 91.1%
viability, T/C (second compound 0.316 µM, first compound 0.03 µM): 114%
viability, T/C (second compound 0.316 µM, first compound 0.0949 µM): 115%
viability, T/C (second compound 0.316 µM, first compound 0.3 µM): 92.9%
viability, T/C (second compound 1 µM, first compound 0.000949 µM): 97.1%
viability, T/C (second compound 1 µM, first compound 0.003 µM): 92%
viability, T/C (second compound 1 µM, first compound 0.00949 µM): 80.7%
viability, T/C (second compound 1 µM, first compound 0.03 µM): 96.7%
viability, T/C (second compound 1 µM, first compound 0.0949 µM): 100%
viability, T/C (second compound 1 µM, first compound 0.3 µM): 84.2%
viability, T/C (second compound 3.16 µM, first compound 0.000949 µM): 83%
viability, T/C (second compound 3.16 µM, first compound 0.003 µM): 78.2%
viability, T/C (second compound 3.16 µM, first compound 0.00949 µM): 99.8%
viability, T/C (second compound 3.16 µM, first compound 0.03 µM): 99.5%
viability, T/C (second compound 3.16 µM, first compound 0.0949 µM): 96.3%
viability, T/C (second compound 3.16 µM, first compound 0.3 µM): 77.8%
viability, T/C (second compound 10 µM, first compound 0.000949 µM): 70.7%
viability, T/C (second compound 10 µM, first compound 0.003 µM): 65.1%
viability, T/C (second compound 10 µM, first compound 0.00949 µM): 76.6%
viability, T/C (second compound 10 µM, first compound 0.03 µM): 81%
viability, T/C (second compound 10 µM, first compound 0.0949 µM): 62.7%
viability, T/C (second compound 10 µM, first compound 0.3 µM): 63.4%
